Assay [1] deals with mutEGFR (D770_N771insSVD) (Homo sapiens, UniProt P00533, INS767SVD). The experiment in a line: Exon20-mutant-EGFR (D770_N771insSVD) TR-FRET kinase assay. The assay is classed as biochemical. To be noted: 2 mM ATP, 15 min preincubation. Put shortly: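 GST-fused human EGFR fragment R669-A1210 carrying the SVD insertion, Sf9-expressed, typically 15 pg/μl, was preincubated with compound for 15 min at 22° C in pH 7.0 Hepes/MgCl2 buffer. Phosphorylation was read by HTRF (665/620 nm ratio), normalised to no-inhibitor and no-enzyme controls.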
(Time-resolved FRET reads energy transfer from a long-lived donor to a nearby acceptor.)

For assay [2], the target named is mutEGFR (D770_N771insNPG, T790). The experiment in a line: mutEGFR (D770_N771insNPG, T790) kinase assay. It is filed as biochemical, human.
For assay [3], the system named is BA/F3 (EGFR D770_N771 insSVD T790M) cells. The experiment in a line: Ba/F3 cell survival assay (Cell Titer-Glo), EGFR-insSVD T790M. To be noted: Ba/F3 EGFR-D770-N771ins_SVD; 48 h, without IL-3, with EGF. It is filed as cell-based. The method, then: 293T cells from ATCC were transfected with pBABEpuro expression constructs for WT EGFR or EGFR-insSVD, or EGFR-insSVD T790M, and pCL-Eco packaging vector using Fugene-6 transfection reagent from Promega. Plates were incubated at 37° C. for 48 h. Retrovirus was harvested by filtering the media supernatant through a 0.45 μm filter.
Ba/F3 cells purchased from DSMZ were grown in RPMI+10% FBS+10 ng/mL IL-3 and infected with filtered retroviral supernatant at a 1:2 dilution. Polybrene was added to a concentration of 8 μg/mL, plates were spun for 90 min, and incubated for 16 h at 37° C. 2 μg/mL puromycin was added to the infected cells 24 h after infection and cells were continually grown in the presence of puromycin and 10 ng/mL IL-3. Following stably expressing Ba/F3 cell lines were generated: Ba/F3-EGFR-WT, Ba/F3-EGFR-insSVD, Ba/F3-EGFR-insSVD T790M, (Ba/F3-vector-control).
For cell survival assays, Ba/F3 cells were grown to a density of 1-2 million cells per mL, spun down and resuspended in media without IL-3, and replated at a concentration of 200,000-500,000 cells per mL. The cells ectopically expressing WT EGFR, EGFR-insSVD, or EGFR-insSVD T790M were plated with 10 ng/mL Millipore Culture grade EGF. The cells ectopically expressing pBABEpuro empty vector were plated with 10 ng/mL IL-3.
2 days later, cells were plated in 50 μL in a 384 well plate at a concentration of 4000 cells per well for cells assayed in the absence of IL-3 and 2000 cells per well for cells assayed in the presence of IL-3. 100 nL of compound was added to each well using a 100 nL pin head, and plates were incubated at 37° C. for 48 h.
Cell viability was measured by adding 20 μL of Cell Titer-Glo Luminescent Cell Viability Reagent diluted 1:3 in PBS. Plates were sealed with Perkin Elmer Top-Seal, inverted several times to mix, and immediately centrifuged at 1000 rpm for 2 min. Plates were incubated in low light conditions for 8-10 min and luminescence was measured.

Assay [4] relates to BA/F3 (insSVD) cells. The experiment in a line: Ba/F3 cell survival assay (Cell Titer-Glo), EGFR-insSVD. It is filed as cell-based. As to conditions: Mus musculus, BaF3, 48 h, without IL-3, with EGF. Put shortly:
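Viability read by CellTiter-Glo luminescence after 48 h compound exposure at 37° C, 4000 cells/well. Retrovirally transduced, puromycin-selected Ba/F3 lines carrying EGFR-insSVD ± T790M grew IL-3-free with 10 ng/mL EGF for 2 days beforehand; compound delivered by 100 nL pin.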
(In general: ATP-based viability assays read luminescence as a measure of living cells.)

pIC50: −log10 of the molar value.

mutEGFR (D770_N771insNPG, T790), sequence (P00533 with tags, fused parts or gaps INS770NPG limits assumed): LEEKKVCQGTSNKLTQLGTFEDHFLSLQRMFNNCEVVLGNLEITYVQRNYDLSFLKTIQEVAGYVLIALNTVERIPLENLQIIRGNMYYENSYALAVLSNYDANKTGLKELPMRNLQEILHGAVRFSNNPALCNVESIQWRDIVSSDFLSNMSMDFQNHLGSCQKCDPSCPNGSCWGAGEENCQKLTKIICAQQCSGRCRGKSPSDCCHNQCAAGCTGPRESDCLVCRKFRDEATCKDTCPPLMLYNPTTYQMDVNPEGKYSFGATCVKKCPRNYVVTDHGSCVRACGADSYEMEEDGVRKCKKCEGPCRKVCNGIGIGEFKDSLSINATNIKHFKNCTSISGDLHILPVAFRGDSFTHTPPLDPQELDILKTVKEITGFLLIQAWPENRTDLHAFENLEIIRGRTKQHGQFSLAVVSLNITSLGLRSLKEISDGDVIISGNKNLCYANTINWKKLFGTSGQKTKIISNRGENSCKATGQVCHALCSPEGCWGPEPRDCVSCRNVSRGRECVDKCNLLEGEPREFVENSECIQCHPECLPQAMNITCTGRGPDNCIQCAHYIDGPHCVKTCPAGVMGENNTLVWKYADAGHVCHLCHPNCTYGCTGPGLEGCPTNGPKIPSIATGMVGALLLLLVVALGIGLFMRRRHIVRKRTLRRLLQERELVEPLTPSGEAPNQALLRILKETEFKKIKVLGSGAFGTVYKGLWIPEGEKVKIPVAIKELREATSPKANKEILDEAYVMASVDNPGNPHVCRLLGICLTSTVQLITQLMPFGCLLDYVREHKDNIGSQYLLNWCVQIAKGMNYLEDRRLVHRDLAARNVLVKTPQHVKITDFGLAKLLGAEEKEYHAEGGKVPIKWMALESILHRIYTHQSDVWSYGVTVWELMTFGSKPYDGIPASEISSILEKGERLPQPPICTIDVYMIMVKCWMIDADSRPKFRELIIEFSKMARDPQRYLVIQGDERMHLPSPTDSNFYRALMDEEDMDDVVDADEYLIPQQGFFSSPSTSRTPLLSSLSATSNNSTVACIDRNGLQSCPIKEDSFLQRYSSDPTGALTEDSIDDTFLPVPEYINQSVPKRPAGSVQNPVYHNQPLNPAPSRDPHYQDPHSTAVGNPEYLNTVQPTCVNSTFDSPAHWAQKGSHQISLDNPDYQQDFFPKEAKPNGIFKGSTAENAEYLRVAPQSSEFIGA
mutEGFR (D770_N771insSVD), sequence (P00533 with tags, fused parts or gaps INS767SVD limits assumed): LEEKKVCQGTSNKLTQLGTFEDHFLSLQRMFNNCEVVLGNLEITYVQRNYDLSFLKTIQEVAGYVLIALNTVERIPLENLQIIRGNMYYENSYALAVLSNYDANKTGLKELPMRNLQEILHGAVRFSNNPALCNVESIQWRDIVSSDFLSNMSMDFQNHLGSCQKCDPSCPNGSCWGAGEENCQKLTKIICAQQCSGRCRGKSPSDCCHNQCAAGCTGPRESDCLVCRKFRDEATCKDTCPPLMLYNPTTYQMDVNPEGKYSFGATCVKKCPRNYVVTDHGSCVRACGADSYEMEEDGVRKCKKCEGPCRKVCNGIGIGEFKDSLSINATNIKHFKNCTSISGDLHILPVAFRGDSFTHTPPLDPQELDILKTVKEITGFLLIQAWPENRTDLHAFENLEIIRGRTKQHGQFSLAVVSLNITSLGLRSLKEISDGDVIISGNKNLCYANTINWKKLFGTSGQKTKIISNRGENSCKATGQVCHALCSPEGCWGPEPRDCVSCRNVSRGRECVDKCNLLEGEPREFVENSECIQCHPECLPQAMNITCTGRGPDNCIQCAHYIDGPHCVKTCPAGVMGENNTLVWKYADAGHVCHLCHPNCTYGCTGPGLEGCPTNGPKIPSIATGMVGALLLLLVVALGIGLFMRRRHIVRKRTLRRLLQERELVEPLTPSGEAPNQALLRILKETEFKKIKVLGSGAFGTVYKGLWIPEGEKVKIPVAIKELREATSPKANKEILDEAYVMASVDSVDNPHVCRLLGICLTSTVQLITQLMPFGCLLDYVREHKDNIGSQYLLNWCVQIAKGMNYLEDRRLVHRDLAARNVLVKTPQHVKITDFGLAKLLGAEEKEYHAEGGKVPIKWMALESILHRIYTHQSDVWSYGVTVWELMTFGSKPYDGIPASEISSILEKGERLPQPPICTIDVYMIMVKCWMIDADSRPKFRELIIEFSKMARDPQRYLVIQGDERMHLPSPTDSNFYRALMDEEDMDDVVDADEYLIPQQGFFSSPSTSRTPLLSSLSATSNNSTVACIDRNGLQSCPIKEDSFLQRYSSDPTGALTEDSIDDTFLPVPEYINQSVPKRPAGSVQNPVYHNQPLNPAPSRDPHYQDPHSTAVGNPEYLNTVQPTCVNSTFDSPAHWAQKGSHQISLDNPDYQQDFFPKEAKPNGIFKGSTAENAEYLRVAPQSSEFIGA

Usually pIC50 stands for the IC50 on a negative log10 scale, so that one unit is a factor of ten. As for `C=CC(=O)N(C)CCOc1cnccc1-c1[nH]c2cccnc2c1-c1ccc(Cl)cc1` [Example 11, N-[2-({4-[3-(4-chlorophenyl)-1H-pyrrolo[3,2-b]pyridin-2-yl]pyridin-3-yl}oxy)ethyl]-N-methylprop-2-enamide], the pIC50 in assay [1] was 7.87; in assay [2], 7.34; in assay [3] it was 5.00; in assay [4] it was 5.95.
For `C=CC(=O)NCCOc1cnccc1-c1[nH]c2cccnc2c1-c1ccccc1` [Example 2, N-(2-{[4-(3-phenyl-1H-pyrrolo[3,2-b]pyridin-2-yl)pyridin-3-yl]oxy}ethyl)prop-2-enamide], in that order: 6.34, 6.12, 5.00 and 5.30.
With `C=CC(=O)N(C)CCOc1cnccc1-c1[nH]c2cccnc2c1-c1ccc2cccnc2c1` [Example 18, N-methyl-N-[2-({4-[3-(quinolin-7-yl)-1H-pyrrolo[3,2-b]pyridin-2-yl]pyridin-3-yl}oxy)ethyl]prop-2-enamide], the pIC50 in assay [1] was 6.26; in assay [2], 5.78; in assay [3] it was 5.00; in assay [4] it was 5.10.
The corresponding values for `C=CC(=O)N1CCC[C@H]1COc1cnccc1-c1[nH]c2cccnc2c1-c1cccc(Cl)c1` [Example 41, 1-{(2S)-2-[({4-[3-(3-chlorophenyl)-1H-pyrrolo[3,2-b]pyridin-2-yl]pyridin-3-yl}oxy)methyl]pyrrolidin-1-yl}prop-2-en-1-one] are 9.50, 9.01, 6.11 and 7.59.
As for `C=CC(=O)N(C)CCOc1cnccc1-c1[nH]c2cccnc2c1-c1cccc(F)c1OC` [Example 19, N-[2-({4-[3-(3-fluoro-2-methoxyphenyl)-1H-pyrrolo[3,2-b]pyridin-2-yl]pyridin-3-yl}oxy)ethyl]-N-methylprop-2-enamide], the negative-log IC50 (pIC50) was 6.75 in assay [1], 6.10 in assay [2], 5.00 in assay [3] and 5.21 in assay [4].
For `CN(C)C/C=C/C(=O)N(C)CCOc1cnccc1-c1[nH]c2cccnc2c1-c1ccccc1` [Example 26, (2E)-4-(dimethylamino)-N-methyl-N-(2-{[4-(3-phenyl-1H-pyrrolo[3,2-b]pyridin-2-yl)pyridin-3-yl]oxy}ethyl)but-2-enamide], the pIC50 is 7.18 in assay [1], 6.48 in assay [2], 5.00 in assay [3] and 5.82 in assay [4].
For `C=CS(=O)(=O)N(C)CCOc1cnccc1-c1[nH]c2cccnc2c1-c1cccc(Cl)c1` [Example 29, N-[2-({4-[3-(3-chlorophenyl)-1H-pyrrolo[3,2-b]pyridin-2-yl]pyridin-3-yl}oxy)ethyl]-N-methylethenesulfonamide], in that order: 9.46, 9.10, 5.50 and 7.28.
For `C=CC(=O)N(C)CCOc1cnccc1-c1[nH]c2cccnc2c1-c1cc(Cl)cc(Cl)c1` [Example 31, N-[2-({4-[3-(3,5-dichlorophenyl)-1H-pyrrolo[3,2-b]pyridin-2-yl]pyridin-3-yl}oxy)ethyl]-N-methylprop-2-enamide], in that order: 6.03, 6.41, 5.00 and 5.26.
`C=CC(=O)N(C)CCOc1cnccc1-c1[nH]c2cccnc2c1-c1cccc(C)c1` [Example 9, N-methyl-N-[2-({4-[3-(3-methylphenyl)-1H-pyrrolo[3,2-b]pyridin-2-yl]pyridin-3-yl}oxy)ethyl]prop-2-enamide]: the negative-log IC50 (pIC50) in assay [1] was 8.22; in assay [2], 7.87; in assay [3], 5.06; in assay [4], 6.53.
Take `C=CC(=O)N(C)CCOc1cnccc1-c1[nH]c2cccnc2c1-c1ccc(Cl)c(OC)c1` [Example 15, N-[2-({4-[3-(4-chloro-3-methoxyphenyl)-1H-pyrrolo[3,2-b]pyridin-2-yl]pyridin-3-yl}oxy)ethyl]-N-methylprop-2-enamide]: the pIC50 in assay [1] is 5.81; in assay [2], 5.31; in assay [3], 5.00; in assay [4], 5.03.
Turning to `C=CC(=O)N(C)CCOc1cnccc1-c1[nH]c2cc(F)cnc2c1-c1ccccc1` [Example 7, N-(2-{[4-(6-fluoro-3-phenyl-1H-pyrrolo[3,2-b]pyridin-2-yl)pyridin-3-yl]oxy}ethyl)-N-methylprop-2-enamide], the pIC50 was 6.83 in assay [1], 6.50 in assay [2], 5.16 in assay [3] and 5.38 in assay [4].
The corresponding values for `C=CC(=O)N(C)CCOc1cnccc1-c1[nH]c2cccnc2c1-c1ccccc1OC` [Example 17, N-[2-({4-[3-(2-methoxyphenyl)-1H-pyrrolo[3,2-b]pyridin-2-yl]pyridin-3-yl}oxy)ethyl]-N-methylprop-2-enamide] are 6.24, 5.77, 5.00 and 5.09.
Turning to `C=CC(=O)N(C)CCOc1cnccc1-c1[nH]c2cccnc2c1-c1ccc(Cl)c(Cl)c1` [Example 23, N-[2-({4-[3-(3,4-dichlorophenyl)-1H-pyrrolo[3,2-b]pyridin-2-yl]pyridin-3-yl}oxy)ethyl]-N-methylprop-2-enamide], the pIC50 in assay [1] was 7.43; in assay [2] it was 7.31; in assay [3], 5.05; in assay [4] it was 5.67.
The corresponding values for `C=CC(=O)N(C)CCOc1cnccc1-c1[nH]c2cccnc2c1-c1ccccc1` [Example 4, N-methyl-N-(2-{[4-(3-phenyl-1H-pyrrolo[3,2-b]pyridin-2-yl)pyridin-3-yl]oxy}ethyl)prop-2-enamide] are 8.12, 7.77, 5.00 and 6.46.
Take `C=CC(=O)N1CCC[C@H]1COc1cnccc1-c1[nH]c2cccnc2c1-c1ccccc1` [Example 34, 1-[(2S)-2-({[4-(3-phenyl-1H-pyrrolo[3,2-b]pyridin-2-yl)pyridin-3-yl]oxy}methyl)pyrrolidin-1-yl]prop-2-en-1-one]: the pIC50 is 9.44 in assay [1], 8.69 in assay [2], 6.12 in assay [3] and 7.77 in assay [4].

For the origin of these results see patent US20260035365A1, “1H-PYRROLO[3,2-B]PYRIDINE DERIVATIVES AS IRREVERSIBLE INHIBITORS OF MUTANT EGFR FOR THE TREATMENT OF CANCER” (Bayer Aktiengesellschaft, priority 2022, published 2026).
